What was measured:
[1] = test system: HCT116 WT cells; experiment: HCT116 proliferation assay, WT cells (CellTiter-Glo, 6 days); format: cell-based; conditions: Homo sapiens, HCT-116, 144 h, read-out: Prolif_HCT116-WT IC50
Procedure, shortened: (§1)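 Compound titrations (top dose 1 or 10 µM, 1:3 dilution, 8 or 9 concentrations) and a DMSO control were applied to cells cultured overnight beforehand in RPMI 1640 with 10% FBS at 37° C, 5% CO2; viability was scored from luminescence.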

[2] = test system: HCT116 MTAP null cells; experiment: HCT116 proliferation assay, MTAP null cells (CellTiter-Glo, 6 days); format: cell-based; conditions: HCT116-MTAP null, 144 h, read-out: Protif_ HCT116-MTAP null IC50
Procedure, shortened: as §1

[3] = biological target: PRMT5/MEP50 (Homo sapiens, UniProt O14744); experiment: MTase-Glo methyl transferase assay, Method A (Histone H4 peptide, 1 µM MTA, 24 h pre-incubation); format: biochemical; design: made in house; conditions: read-out: PRMT5 MTase Glo Ki (nM, Meth. A)
Procedure, shortened: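 Luminescent SAH detection (MTase-Glo) after a 2 h room-temperature methylation of 1 µM biotinylated H4 (1-21) peptide by 10 nM PRMT5/MEP50 with 5 µM SAM, in 50 mM Tris pH 8.0.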

PRMT5/MEP50, sequence (O14744 whole entry): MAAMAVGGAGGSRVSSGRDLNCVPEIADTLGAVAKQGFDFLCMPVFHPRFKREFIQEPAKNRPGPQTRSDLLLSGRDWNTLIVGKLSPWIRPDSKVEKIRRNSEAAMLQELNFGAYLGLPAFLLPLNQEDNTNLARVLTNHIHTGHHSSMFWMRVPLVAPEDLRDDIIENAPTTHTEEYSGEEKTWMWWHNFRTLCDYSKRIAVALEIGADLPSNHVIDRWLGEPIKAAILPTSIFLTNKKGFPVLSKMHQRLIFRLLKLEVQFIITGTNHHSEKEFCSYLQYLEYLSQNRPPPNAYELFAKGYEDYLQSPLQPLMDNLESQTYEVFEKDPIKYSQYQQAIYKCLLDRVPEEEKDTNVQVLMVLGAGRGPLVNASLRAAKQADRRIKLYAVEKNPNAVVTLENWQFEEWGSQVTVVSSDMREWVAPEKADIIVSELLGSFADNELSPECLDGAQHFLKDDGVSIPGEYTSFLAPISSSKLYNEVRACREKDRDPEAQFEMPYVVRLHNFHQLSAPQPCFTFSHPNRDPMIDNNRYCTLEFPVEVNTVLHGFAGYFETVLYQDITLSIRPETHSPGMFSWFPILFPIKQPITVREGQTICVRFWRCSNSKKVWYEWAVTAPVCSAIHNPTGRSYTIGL
PRMT5/MEP50, sequence (Q9BQA1 whole entry partner): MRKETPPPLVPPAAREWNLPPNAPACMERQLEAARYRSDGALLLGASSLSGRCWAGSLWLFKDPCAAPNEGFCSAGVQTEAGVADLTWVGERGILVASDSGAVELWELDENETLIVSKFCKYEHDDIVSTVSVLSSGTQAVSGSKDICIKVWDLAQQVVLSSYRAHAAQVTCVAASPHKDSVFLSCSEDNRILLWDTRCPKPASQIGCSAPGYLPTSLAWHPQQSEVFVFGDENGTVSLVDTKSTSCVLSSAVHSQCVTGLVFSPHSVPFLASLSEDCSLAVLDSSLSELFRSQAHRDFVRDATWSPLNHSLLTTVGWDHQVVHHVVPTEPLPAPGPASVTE

SMILES: Cc1cc2cc(C(=O)N(Cc3ccc(C4=CCOCC4)cn3)[C@H](C)c3ncccn3)ccc2nc1N [Example 557, (R)-2-amino-N-((5-(3,6-dihydro-2H-pyran-4-yl)pyridin-2-yl)methyl)-3-methyl-N-(1-(pyrimidin-2-yl)ethyl)quinoline-6-carboxamide]
- IC50 [1]: 1730 nM
- IC50 [2]: 42 nM
- Ki [3]: 0.18 nM

SMILES: Cc1cc2cc(C(=O)N(Cc3ccc(C(F)(F)F)cn3)[C@@H]3CCCc4cccnc43)ccc2nc1N [Example 390, 2-amino-3-methyl-N-((8R)-5,6,7,8-tetrahydro-8-quinolinyl)-N-((5-(trifluoromethyl)-2-pyridinyl)methyl)-6-quinolinecarboxamide]
- IC50 [1]: 460 nM
- IC50 [2]: 23 nM
- Ki [3]: 0.25 nM

SMILES: C[C@H](c1nccs1)N(Cc1ccc(Br)nn1)C(=O)c1ccc2nc(N)c(Br)cc2c1 [Example 435, 2-amino-3-bromo-N-((6-bromo-3-pyridazinyl)methyl)-N-((1R)-1-(1,3-thiazol-2-yl)ethyl)-6-quinolinecarboxamide]
- IC50 [1]: 3280 nM
- IC50 [2]: 66 nM
- Ki [3]: 0.08 nM

SMILES: Cc1cc2cc(C(=O)N(Cc3ccc(C(F)(F)F)nc3)Cc3ncccc3F)ccc2nc1N [Example 322, 2-amino-N-((3-fluoro-2-pyridinyl)methyl)-3-methyl-N-((6-(trifluoromethyl)-3-pyridinyl)methyl)-6-quinolinecarboxamide]
- IC50 [1]: > 10000 nM
- IC50 [2]: 385 nM
- Ki [3]: 1.09 nM

SMILES: Cc1cc2cc(C(=O)N(Cc3ccc(C#N)cn3)Cc3ncccc3F)ccc2nc1N [Example 327, 2-amino-N-((5-cyano-2-pyridinyl)methyl)-N-((3-fluoro-2-pyridinyl)methyl)-3-methyl-6-quinolinecarboxamide]
- IC50 [1]: 8640 nM
- IC50 [2]: 304 nM
- Ki [3]: 0.35 nM

SMILES: CO[C@H](CN(Cc1ccc(C(F)(F)F)cn1)C(=O)c1ccc2nc(N)c(C)cc2c1)C(F)(F)F (single isomer, unassigned) [Example 453]
- IC50 [1]: 1720 nM
- IC50 [2]: 65 nM
- Ki [3]: 0.06 nM

SMILES: Cc1cc2cc(C(=O)N(Cc3ccc(C(F)(F)F)cn3)Cc3ccnc4[nH]ccc34)ccc2nc1N [Example 356, 2-amino-3-methyl-N-(1H-pyrrolo[2,3-b]pyridin-4-ylmethyl)-N-((5-(trifluoromethyl)-2-pyridinyl)methyl)-6-quinolinecarboxamide]
- IC50 [1]: 801 nM
- IC50 [2]: 35 nM
- Ki [3]: 0.02 nM

SMILES: Cc1cc2cc(C(=O)N(Cc3ccc(C(F)(F)F)cn3)Cc3ncccc3C)ccc2nc1N [Example 343, 2-amino-3-methyl-N-((3-methyl-2-pyridinyl)methyl)-N-((5-(trifluoromethyl)-2-pyridinyl)methyl)-6-quinolinecarboxamide]
- IC50 [1]: 2830 nM
- IC50 [2]: 104 nM
- Ki [3]: 0.66 nM

SMILES: Cc1cc2cc(C(=O)N(Cc3ccc(C(F)(F)F)nn3)[C@H](C)c3ncccn3)ccc2nc1N (single isomer, unassigned) [Example 488]
- IC50 [1]: 1280 nM
- IC50 [2]: 35 nM
- Ki [3]: 0.1 nM

SMILES: Cc1cc2cc(C(=O)N(Cc3ccc(Br)cn3)[C@H](C)c3ncccn3)ccc2nc1N [Example 402]
- IC50 [1]: 526 nM
- IC50 [2]: 15 nM
- Ki [3]: 0.04 nM

SMILES: Cc1cc2cc(C(=O)N(Cc3ccc(C(F)(F)F)cn3)[C@H](C)c3ccc(F)cc3)ccc2nc1N [Example 360, 2-amino-N-((1R)-1-(4-fluorophenyl)ethyl)-3-methyl-N-((5-(trifluoromethyl)-2-pyridinyl)methyl)-6-quinolinecarboxamide]
- IC50 [1]: 4810 nM
- IC50 [2]: 199 nM
- Ki [3]: 0.08 nM

SMILES: Cc1cc(C(F)(F)F)ccc1CN(Cc1ncccc1F)C(=O)c1ccc2nc(N)c(C)cc2c1 [Example 329, 2-amino-N-((3-fluoro-2-pyridinyl)methyl)-3-methyl-N-(2-methyl-4-(trifluoromethyl)benzyl)-6-quinolinecarboxamide]
- IC50 [1]: 3900 nM
- IC50 [2]: 128 nM
- Ki [3]: 0.13 nM

SMILES: C[C@H](c1ncccn1)N(Cc1ccc(C(F)(F)F)cn1)C(=O)c1ccc2nc(N)c(Cl)cc2c1 [Example 347, 2-amino-3-chloro-N-((1R)-1-(2-pyrimidinyl)ethyl)-N-((5-(trifluoromethyl)-2-pyridinyl)methyl)-6-quinolinecarboxamide]
- IC50 [1]: 6200 nM
- IC50 [2]: 168 nM
- Ki [3]: 0.17 nM

SMILES: Cc1cc2cc(C(=O)N(Cc3ccc(C#N)cn3)[C@H](C)c3ncccn3)c(Cl)cc2nc1N [Example 438, 2-amino-7-chloro-N-((5-cyano-2-pyridinyl)methyl)-3-methyl-N-((1R)-1-(2-pyrimidinyl)ethyl)-6-quinolinecarboxamide]
- IC50 [1]: 8790 nM
- IC50 [2]: 368 nM
- Ki [3]: 0.76 nM

SMILES: Cc1cc2cc(C(=O)N(Cc3ccc(C(F)(F)F)cn3)[C@H]3CCCc4nccnc43)ccc2nc1N (single isomer, unassigned) [Example 522, 2-amino-3-methyl-N-((5 S)-5,6,7,8-tetrahydro-5-quinoxalinyl)-N-((5-(trifluoromethyl)-2-pyridinyl)methyl)-6-quinolinecarboxamide]
- IC50 [1]: 5570 nM
- IC50 [2]: 868 nM
- Ki [3]: 49.9 nM

SMILES: Cc1cc2cc(C(=O)N(Cc3ccc(C#N)cn3)[C@H](C)c3ncc(F)cc3F)ccc2nc1N [Example 431, 2-amino-N-((5-cyano-2-pyridinyl)methyl)-N-((1R)-1-(3,5-difluoro-2-pyridinyl)ethyl)-3-methyl-6-quinolinecarboxamide]
- IC50 [1]: 3210 nM
- IC50 [2]: 173 nM
- Ki [3]: 0.07 nM

SMILES: Cc1cc2cc(C(=O)N(Cc3ccc(C(F)F)cn3)[C@H](C)c3ncc(F)cn3)ccc2nc1N (single isomer, unassigned) [Example 455]
- IC50 [1]: 2940 nM
- IC50 [2]: 100 nM
- Ki [3]: 0.16 nM

SMILES: Cc1cc2cc(C(=O)N(Cc3ccc(C(F)(F)F)cn3)[C@H](C)c3ncccn3)c(F)cc2nc1N [Example 429, 2-amino-7-fluoro-3-methyl-N-((1R)-1-(2-pyrimidinyl)ethyl)-N-((5-(trifluoromethyl)-2-pyridinyl)methyl)-6-quinolinecarboxamide]
- IC50 [1]: 607 nM
- IC50 [2]: 39 nM
- Ki [3]: 0.91 nM

SMILES: COC(=O)N1CC=C(c2ccc(CN(C(=O)c3ccc4nc(N)c(C)cc4c3)[C@H](C)c3ncccn3)nc2)CC1 [Example 551, methyl 6-((((2-amino-3-methyl-6-quinolinyl)carbonyl)((1R)-1-(2-pyrimidinyl)ethyl)amino)methyl)-3’,6′-dihydro[3,4′-bipyridine]-1′(2′H)-carboxylate]
- IC50 [1]: 634 nM
- IC50 [2]: 21 nM
- Ki [3]: 0.14 nM

SMILES: Cc1cc2cc(C(=O)N(Cc3ccc4ccccc4n3)[C@H](C)c3ncccn3)ccc2nc1N (single isomer, unassigned) [Example 446]
- IC50 [1]: 851 nM
- IC50 [2]: 45 nM
- Ki [3]: 0.04 nM

SMILES: Cc1cc2cc(C(=O)N(Cc3ccc(C(F)(F)F)cn3)[C@H](C)c3cnccn3)ccc2nc1N (single isomer, unassigned) [Example 482]
- IC50 [1]: 4320 nM
- IC50 [2]: 106 nM
- Ki [3]: 0.1 nM

SMILES: Cc1cc2cc(C(=O)N(Cc3ccc(C#N)cn3)[C@H](C)c3ncccn3)ncc2nc1N [Example 418, 2-amino-N-((5-cyano-2-pyridinyl)methyl)-3-methyl-N-((1R)-1-(2-pyrimidinyl)ethyl)-1,7-naphthyridine-6-carboxamide]
- IC50 [1]: > 10000 nM
- IC50 [2]: 500 nM
- Ki [3]: 0.27 nM

SMILES: Cc1cc2cc(C(=O)N(Cc3ccc(Cl)cn3)[C@H](C)c3ncccn3)c(F)cc2nc1N [Example 415, 2-amino-N-((5-chloro-2-pyridinyl)methyl)-7-fluoro-3-methyl-N-((1R)-1-(2-pyrimidinyl)ethyl)-6-quinolinecarboxamide]
- IC50 [1]: 490 nM
- IC50 [2]: 39 nM
- Ki [3]: 0.54 nM

SMILES: CC(C)CN(Cc1ccc(C(F)(F)F)cn1)C(=O)c1ccc2nc(N)c(Br)cc2c1 [Example 318, 2-amino-3-bromo-N-(2-methylpropyl)-N-((5-(trifluoromethyl)-2-pyridinyl)methyl)-6-quinolinecarboxamide]
- IC50 [1]: > 10000 nM
- IC50 [2]: 952 nM
- Ki [3]: 1.91 nM

SMILES: COc1ccc(CN(C(=O)c2ccc3nc(N)c(C)cc3c2)[C@@H]2CCC[C@H]2O)nn1 [Example 367, 2-amino-N-((1R,2R)-2-hydroxycyclopentyl)-N-((6-methoxypyridazin-3-yl)methyl)-3-methylquinoline-6-carboxamide]
- IC50 [1]: > 10000 nM
- IC50 [2]: 282 nM
- Ki [3]: 0.41 nM

SMILES: Cc1cc2cc(C(=O)N(Cc3ccc(C(F)(F)F)cn3)[C@H](C)c3ncc(F)cn3)cnc2nc1N (single isomer, unassigned) [Example 481]
- IC50 [1]: 4450 nM
- IC50 [2]: 225 nM
- Ki [3]: 0.18 nM

SMILES: Cc1cc2cc(C(=O)N(Cc3ccc(C(F)(F)F)cn3)[C@@H](c3ncccn3)C3CC3)ccc2nc1N (single isomer, unassigned) [Example 452]
- IC50 [1]: 480 nM
- IC50 [2]: 22 nM
- Ki [3]: 0.06 nM

SMILES: Cc1cc2cc(C(=O)N(Cc3ccc(C#N)cn3)[C@H](C)c3ncccc3F)ccc2nc1N [Example 542, (R)-2-amino-N-((5-cyanopyridin-2-yl)methyl)-N-(1-(3-fluoropyridin-2-yl)ethyl)-3-methylquinoline-6-carboxamide]
- IC50 [1]: 4180 nM
- IC50 [2]: 110 nM
- Ki [3]: 0.12 nM

SMILES: Cc1cc2cc(C(=O)N(Cc3ncc(C#N)cc3C)[C@H](C)c3ncccn3)ccc2nc1N [Example 549, 2-amino-N-((5-cyano-3-methyl-2-pyridinyl)methyl)-3-methyl-N-((1R)-1-(2-pyrimidinyl)ethyl)-6-quinolinecarboxamide]
- IC50 [1]: 5090 nM
- IC50 [2]: 275 nM
- Ki [3]: 0.07 nM

— patent US20230159510A1, “NOVEL PRMT5 INHIBITORS” (AMGEN INC., priority 2020, published 2023)
